Measured values published in ChEMBL document CHEMBL5096164, “In Vivo Profiling of a Natural Alkaloid, Anatabine, in Rodents: Pharmacokinetics and Anti-Inflammatory Efficacy” (J Nat Prod, 2021).

Assays:
Mus musculus [1] = test: Antiinflammatory activity in LPS induced mouse model assessed as reduction in tumor necrosis factor alpha level in plasma at 1 mg/kg, po preincubated for 1 hr followed by LPS stimulation and measured after 2 hrs by ELISA method relative to control; format: functional; design: scale not given: the % may be the effect or the level left; details: time 3 hrs
Mus musculus [2] = test: Antiinflammatory activity in LPS induced mouse model assessed as reduction in IL-6 level in plasma at 1 mg/kg, po preincubated for 1 hr followed by LPS stimulation and measured after 2 hrs by ELISA method relative to control; format: functional; design: scale not given: the % may be the effect or the level left; details: time 3 hrs

## C[C@@H]1C[C@H]2[C@@H]3CCC4=CC(=O)C=C[C@]4(C)[C@@]3(F)[C@@H](O)C[C@]2(C)[C@@]1(O)C(=O)CO [DEXAMETHASONE]
Mus musculus [1]
  Activity: 72.1%
Mus musculus [2]
  Activity: 46.9%
